The results in this text go back to US7217722B2 (Kirin Beer Kabushiki Kaisha, priority 2000, dated 2007).

The structures appear in SMILES notation.

In general, IC50 refers to the concentration that gives 50% inhibition. High values mean lower potency, low ones higher potency.

Rho kinase (fused protein of bovine Rho kinase catalyst region and glutathione S-transferase), sequence (Q28021 92-354 limits assumed): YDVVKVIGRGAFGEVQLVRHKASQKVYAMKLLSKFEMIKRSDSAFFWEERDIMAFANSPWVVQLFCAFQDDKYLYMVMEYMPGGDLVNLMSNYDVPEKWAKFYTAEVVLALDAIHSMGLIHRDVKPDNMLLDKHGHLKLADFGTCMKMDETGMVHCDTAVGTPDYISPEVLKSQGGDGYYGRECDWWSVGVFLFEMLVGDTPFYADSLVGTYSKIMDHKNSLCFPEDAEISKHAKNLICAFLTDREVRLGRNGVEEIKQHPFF

The target of this test is Rho kinase (fused protein of bovine Rho kinase catalyst region and glutathione S-transferase) (Bos taurus, UniProt Q28021). Description: Rho kinase inhibitory activity (phosphorylation of S6 231–239 substrate, γ32P-ATP). In kind it is biochemical. The note with it: concentration inhibiting substrate phosphorylation by 50%. The procedure:
This permits the substrate to be labeled with the radioisotope.
Thereafter, the substrate was adsorbed to a filter paper. ATP was washed away with a phosphoric acid solution, and the amount of the phosphorylated substrate was then measured with a liquid scintillation counter.
The molecule `O=C(Nc1cccc([N+](=O)[O-])c1)Nc1ccc2c(c1)C(=O)NC2=O` [Example 78, N-(1,3-Dioxo-2,3-dihydro-1H-5-isoindolyl)-N′-(3-nitrophenyl)urea] displayed a half-inhibitory concentration (IC50) of 10400 nM.

`Nc1cccc(NC(=O)Nc2ccc3c(c2)C(=O)NC3=O)c1` [Example 79] had an IC50 of 8570 nM. `O=C(NCc1c(Cl)cccc1Cl)Nc1cc2c(cc1Cl)C(=O)NC2=O` [Example 81, N-(6-Chloro-1,3-dioxo-2,3-dihydro-1H-5-isoindolyl)-N′-(2,6-dichlorobenzyl)urea] returned an IC50 of 54 nM.

`O=C(NCc1ccccc1Cl)Nc1ccc2c(c1)C(=O)NC2=O` [Example 82, N-(2-Chlorobenzyl)-N′-(1,3-dioxo-2,3-dihydro-1H-5-isoindolyl)urea] had an IC50 of 290 nM.

Take `O=C(NCc1ccccc1)Nc1ccc2[nH]ncc2c1` [Example 84, N-Benzyl-N′-(1H-5-indazolyl)urea]: the IC50 was 260 nM. The result for `O=C(NCc1cccc2ccccc12)Nc1ccc2c(c1)C(=O)NC2=O` [Example 85, N-(1,3-Dioxo-2,3-dihydro-1H-5-isoindolyl)-N′-(1-naphthylmethyl)urea] reads 180 nM; that for `O=C(NCc1ccccc1[N+](=O)[O-])Nc1ccc2c(c1)C(=O)NC2=O` [Example 86, N-(1,3-Dioxo-2,3-dihydro-1H-5-isoindolyl)-N′-(2-nitrobenzyl)urea], 900 nM. `Nc1ccccc1CNC(=O)Nc1ccc2c(c1)C(=O)NC2=O` [Example 87] yielded an IC50 of 180 nM.

In turn, `O=C(NCc1ccc(Cl)cc1Cl)Nc1ccc2c(c1)C(=O)NC2=O` [Example 88, N-(2,4-Dichlorobenzyl)-N′-(1,3-dioxo-2,3-dihydro-1H-5-isoindolyl)urea] gave a concentration for half-maximal inhibition (IC50) of 440 nM. The same measure for `O=C(NCc1c(Cl)ccc(Cl)c1Cl)Nc1ccc2c(c1)C(=O)NC2=O` [Example 89, N-(1,3-Dioxo-2,3-dihydro-1H-5-isoindolyl)-N′-(2,3,6-trichlorobenzyl)urea]: 300 nM; for `O=C(NCc1c(F)cccc1C(F)(F)F)Nc1ccc2c(c1)C(=O)NC2=O` [Example 91, N-(1,3-Dioxo-2,3-dihydro-1H-5-isoindolyl)-N′-[2-fluoro-6-(trifluoromethyl)benzyl]urea]: 99 nM. The result for `O=C(NCc1ccccc1)Nc1ccncc1` [Example 92, N-Benzyl-N′-(4-pyridyl)urea] reads 10200 nM; that for `O=C(NCc1ccccc1[N+](=O)[O-])Nc1ccncc1` [Example 93, N-(2-Nitrobenzyl)-N′-(4-pyridyl)urea], 12500 nM. The result for `O=C(NCc1ccccc1Cl)Nc1ccncc1` [Example 94, N-(2-Chlorobenzyl)-N′-(4-pyridyl)urea] reads 7200 nM; that for `O=C(NCc1c(F)cccc1C(F)(F)F)Nc1ccc2[nH]ncc2c1` [Example 96, N-[2-fluoro-6-(trifluoromethyl)benzyl]-N′-(1H-5-indazolyl)urea], 230 nM. `O=C(NCc1c(F)c(F)c(F)c(F)c1F)Nc1ccncc1` [Example 97, N-(2,3,4,5,6-Pentafluorobenzyl)-N′-(4-pyridyl)urea] yielded an IC50 of 2100 nM. `O=C(NCc1c(F)c(F)c(F)c(F)c1F)Nc1ccc2c(c1)C(=O)NC2=O` [Example 98, N-(1,3-Dioxo-2,3-dihydro-1H-5-isoindolyl)-N′-(2,3,4,5,6-pentafluorobenzyl)urea] yielded an IC50 of 410 nM. The same measure for `O=C(NCc1c(F)cc(F)cc1F)Nc1ccc2c(c1)C(=O)NC2=O` [Example 99, N-(1,3-Dioxo-2,3-dihydro-1H-5-isoindolyl)-N′-(2,4,6-trifluorobenzyl)urea]: 240 nM; for `O=C(NCc1ccc(Cl)cc1Cl)Nc1ccc2[nH]ncc2c1` [Example 100, N-(2,4-Dichlorobenzyl)-N′-(1H-5-indazolyl)urea]: 220 nM. `O=C(NCc1c(Cl)ccc(Cl)c1Cl)Nc1ccc2[nH]ncc2c1` [Example 101, N-(1H-5-Indazolyl)-N′-(2,3,6-trichloro-benzyl)urea] had a 50% inhibitory concentration (IC50) of 1800 nM. The result for `O=C(NCc1c(F)cc(F)cc1F)Nc1ccc2[nH]ncc2c1` [Example 103, N-(1H-5-Indazolyl)-N′-(2,4,6-trifluorobenzyl)urea] reads 260 nM; that for `O=C(NCc1ccccc1Cl)Nc1ccc2[nH]ncc2c1` [Example 104, N-(2-Chlorobenzyl)-N′-(1H-5-indazolyl)urea], 240 nM; that for `O=C(NCC1CCCCC1)Nc1ccc2[nH]ncc2c1` [Example 105, N-Cyclohexylmethyl-N′-(1H-5-indazolyl)urea], 390 nM.

On to `O=C(NCc1c(Cl)cccc1Cl)Nc1ccc2[nH]ncc2c1` [Example 106, N-(2,6-Dichlorobenzyl)-N′-(1H-5-indazolyl)urea], for which 1400 nM corresponded to half-maximal inhibition (IC50).

`O=C(NCc1cccc2ccccc12)Nc1ccc2[nH]ncc2c1` [Example 107, N-(1H-5-Indazolyl)-N′-(1-naphthylmethyl)urea] showed an IC50 of 470 nM. The same measure for `O=C(NCc1c(F)ccc(F)c1F)Nc1ccncc1` [Example 108, N-(Pyridyl)-N′-(2,3,6-trifluorobenzyl)urea]: 3800 nM; for `O=C(NCc1c(F)ccc(F)c1F)Nc1ccc2c(c1)C(=O)NC2=O` [Example 109, N-(1,3-Dioxo-2,3-dihydro-1H-5-isoindolyl)-N′-(2,3,6-trifluorobenzyl)urea]: 161 nM. The same measure for `O=C(NCc1c(F)ccc(F)c1F)Nc1ccc2[nH]ncc2c1` [Example 110, N-(1H-5-Indazolyl)-N′-(2,3,6-trifluorobenzyl)urea]: 195 nM; for `O=C(NCc1cccc([N+](=O)[O-])c1)Nc1ccncc1` [Example 111, N-(3-Nitrobenzyl)-N′-(4-pyridyl)urea]: 1770 nM; for `Nc1cccc(CNC(=O)Nc2ccc3c(c2)C(=O)NC3=O)c1` [Example 112, N-(3-Aminobenzyl)-N′-(1,3-dioxo-2,3-dihydro-1H-5-isoindolyl)urea]: 310 nM. The same measure for `COc1cc(CNC(=O)Nc2ccc3[nH]ncc3c2)ccc1O` [Example 113, N-(4-Hydroxy-3-methoxybenzyl)-N′-(1H-5-indazolyl)urea]: 492 nM.

`Clc1ccc(CN2CCC(Nc3ccc4[nH]ncc4c3)CC2)cc1Cl` [Example 114, N-[1-(3,4-Dichlorobenzyl)-4-piperidyl]-N-(1H-5-indazolyl)amine] gave an IC50 of 329 nM. Turning to `Cc1ccc(CN2CCC(Nc3ccc4[nH]ncc4c3)CC2)cc1C` [Example 115, N-[1-(3,4-Dimethylbenzyl)-4-piperidyl]-N-(1H-5-indazolyl)amine], the concentration for half-maximal inhibition (IC50) stood at 372 nM. The result for `c1ccc2cc(CN3CCC(Nc4ccc5[nH]ncc5c4)CC3)ccc2c1` [Example 116, N-(1H-5-Indazolyl)-N-[1-(2-naphthylmethyl)-4-piperidyl]amine] reads 136 nM; that for `Fc1cccc(CN2CCC(Nc3ccc4[nH]ncc4c3)CC2)c1` [Example 117, N-[1-(3-Fluorobenzyl)-4-piperidyl]-N-(1H-5-indazolyl)amine], 317 nM; that for `FC(F)(F)c1ccc(CN2CCC(Nc3ccc4[nH]ncc4c3)CC2)cc1` [Example 118, N-(1H-5-Indazolyl)-N-{1-[4-(trifluoromethyl)benzyl]-4-piperidyl}amine], 275 nM. For the molecule `COc1cccc(CN2CCC(Nc3ccc4[nH]ncc4c3)CC2)c1` [Example 119, N-(1H-5-Indazolyl)-N-[1-(3-methoxybenzyl)-4-piperidyl]amine], 383 nM corresponded to half-maximal inhibition (IC50). The same measure for `CCc1ccc(CN2CCC(Nc3ccc4[nH]ncc4c3)CC2)cc1` [Example 120, N-[1-(4-Ethylbenzyl)-4-piperidyl]-N-(1H-5-indazolyl)amine]: 241 nM; for `CCc1ccccc1CN1CCC(Nc2ccc3[nH]ncc3c2)CC1` [Example 121, N-[1-(2-Ethylbenzyl)-4-piperidyl]-N-(1H-5-indazolyl)amine]: 513 nM; for `CC(C)c1ccc(CN2CCC(Nc3ccc4[nH]ncc4c3)CC2)cc1` [Example 122, N-(1H-5-Indazolyl)-N-[1-(4-isopropylbenzyl)-4-piperidyl]amine]: 309 nM. The same measure for `c1ccc(Oc2cccc(CN3CCC(Nc4ccc5[nH]ncc5c4)CC3)c2)cc1` [Example 123, N-(1H-5-Indazolyl)-N-[1-(3-phenoxybenzyl)-4-piperidyl]amine]: 220 nM. The same measure for `Cc1ccc(CN2CCC(Nc3ccc4[nH]ncc4c3)CC2)cc1[N+](=O)[O-]` [Example 124]: 238 nM; for `CCN1CCC(Nc2ccc3[nH]ncc3c2)CC1` [Example 125, N-(1-Ethyl-4-piperidyl)-N-(1H-5-indazolyl)-amine]: 747 nM; for `c1cc2[nH]ncc2cc1NC1CCCCC1` [Example 129, N-Cyclohexyl-N-(1H-5-indazolyl)amine]: 670 nM. Molecule `c1ccc(CCN2CCC(Nc3ccc4[nH]ncc4c3)CC2)cc1` [Example 130, N-(1H-5-Indazolyl)-N-(1-phenethyl-4-piperidyl)amine] came in with an IC50 of 457 nM. This IC50 and that of the molecule before are within 1.5-fold of each other. The result for `c1cncc(CN2CCC(Nc3ccc4[nH]ncc4c3)CC2)c1` [Example 132, N-(1H-5-Indazolyl)-N-[1-(3-pyridylmethyl)-4-piperidyl]amine] reads 603 nM. `c1cc(CN2CCC(Nc3ccc4[nH]ncc4c3)CC2)ccn1` [Example 133, N-(1H-5-Indazolyl)-N-[1-(4-pyridylmethyl)-4-piperidyl]amine] had a concentration for half-maximal inhibition (IC50) of 680 nM.

In the case of `Clc1ccccc1CN1CCC(Nc2ccc3[nH]ncc3c2)CC1` [Example 134, N-[1-(2-Chlorobenzyl)-4-piperidyl]-N-(1H-5-indazolyl)amine], the 50% inhibitory concentration (IC50) worked out at 436 nM. The same measure for `Clc1cccc(CN2CCC(Nc3ccc4[nH]ncc4c3)CC2)c1` [Example 135, N-[1-(3-Chlorobenzyl)-4-piperidyl]-N-(1H-5-indazolyl)amine]: 285 nM; for `Fc1ccc(CN2CCC(Nc3ccc4[nH]ncc4c3)CC2)cc1` [Example 137, N-[1-(4-Fluorobenzyl)-4-piperidyl]-N-(1H-5-indazolyl)amine]: 478 nM.
